Source: the OligoGym collection
After the bases stand the sugars from the 5' end (letter, count) and the backbone: PS all phosphorothioate, else s phosphorothioate and o phosphodiester by linkage. Methylation of C is not given here. e = 2'-O-(2-methoxyethyl) (MOE); k = constrained ethyl (cEt); d = 2'-deoxy (DNA); m = 2'-O-methyl

Target: HSD17B13
Conditions: ASO, HepaRG

## TGATATACGATGGAAC (sugars k3 d10 k3, PS)
1 µM
  target mRNA inhibition: 13%

## CTAGATACTCAATTTA (sugars k3 d10 k3, PS)
1 µM
  target mRNA inhibition: 30%

## TAATCACAAGTAAGGT (sugars k3 d10 k3, PS)
1 µM
  target mRNA inhibition: 54%

## AAACTAGGAAGTGATC (sugars k3 d10 k3, PS)
1 µM
  target mRNA inhibition: 39%

## ATCTTAAGATACCCAG (sugars k3 d10 k3, PS)
1 µM
  target mRNA inhibition: 70%

## AGAGTCGGTCACCTTT (sugars k3 d10 k3, PS)
1 µM
  target mRNA inhibition: 71%

## CGGCAAATTTGCTGGA (sugars k3 d10 k3, PS)
1 µM
  target mRNA inhibition: 29%

## GCATTAAAACTCTCAT (sugars k3 d10 k3, PS)
1 µM
  target mRNA inhibition: 35%

## AGATTGGAATGCTACT (sugars k3 d10 k3, PS)
1 µM
  target mRNA inhibition: 63%

## CCTCAAATGAGGCGGC (sugars k3 d10 k3, PS)
1 µM
  target mRNA inhibition: 47%

## AGAGCCAAACTGCTAC (sugars k3 d10 k3, PS)
1 µM
  target mRNA inhibition: 55%

## TCTAAACATCTCTGGG (sugars k3 d10 k3, PS)
1 µM
  target mRNA inhibition: 40%

## ATTGTTAGCTAAGGGA (sugars k3 d10 k3, PS)
1 µM
  target mRNA inhibition: 22%

## GAAACTTGATCTCTTA (sugars k3 d1 m1 d8 k3, PS)
1 µM
  target mRNA inhibition: 59%

## GTCAAAAACCGTCAAA (sugars k3 d10 k3, PS)
1 µM
  target mRNA inhibition: 39%

## TTCAACTAAACATGAC (sugars k3 d10 k3, PS)
1 µM
  target mRNA inhibition: 55%

## CTATGTAATAGGCAGT (sugars k3 d10 k3, PS)
0.02 µM
  target mRNA inhibition: 18%
0.078 µM
  target mRNA inhibition: 20%
0.313 µM
  target mRNA inhibition: 63%
1 µM
  target mRNA inhibition: 73%
1.25 µM
  target mRNA inhibition: 75%
5 µM
  target mRNA inhibition: 86%

## GTTTACTCACTTCTGG (sugars k3 d10 k3, PS)
1 µM
  target mRNA inhibition: 29%

## GACTAAGGAGCTAGAT (sugars k3 d10 k3, PS)
1 µM
  target mRNA inhibition: 25%

## AACCATAGGACATGGA (sugars k3 d10 k3, PS)
1 µM
  target mRNA inhibition: 71%

## TTTTAAGAGGCATGAA (sugars k3 d10 k3, PS)
1 µM
  target mRNA inhibition: 53%

## CTATAATACATTAGCA (sugars k3 d10 k3, PS)
1 µM
  target mRNA inhibition: 3%

## TTGAGATAAAGCTGCC (sugars kkkdddddkdddkkke, PS)
1 µM
  target mRNA inhibition: 43%

## CTAGGGAAATCTTTCA (sugars k3 d1 m1 d8 k3, PS)
1 µM
  target mRNA inhibition: 19%

## TATCAATGCCTTAGCC (sugars k3 d10 k3, PS)
1 µM
  target mRNA inhibition: 15%

## TCTTGACAATGGTTGA (sugars kkdddddddddkekek, PS)
1 µM
  target mRNA inhibition: 40%

## ATAAGTAGATGGTAAG (sugars k3 d10 k3, PS)
1 µM
  target mRNA inhibition: 58%

## TTGAGATAAAGCTGCC (sugars kkdddddddddkekek, PS)
1 µM
  target mRNA inhibition: 2%

## AGAATAGAGTTGCACC (sugars k3 d10 k3, PS)
1 µM
  target mRNA inhibition: 70%

## GACTCCAAGTAGGAGT (sugars k3 d10 k3, PS)
1 µM
  target mRNA inhibition: 0%

## GGAATGCTCATATTAA (sugars k3 d10 k3, PS)
1 µM
  target mRNA inhibition: 19%

## GTAGATGATGGTGATC (sugars k3 d10 k3, PS)
1 µM
  target mRNA inhibition: 36%

## CTGCATTAATGCCACC (sugars k3 d10 k3, PS)
0.02 µM
  target mRNA inhibition: 0%
0.078 µM
  target mRNA inhibition: 0%
0.313 µM
  target mRNA inhibition: 17%
1 µM
  target mRNA inhibition: 67%
1.25 µM
  target mRNA inhibition: 40%
5 µM
  target mRNA inhibition: 81%

## GAAATTGATACACCAA (sugars k3 d10 k3, PS)
1 µM
  target mRNA inhibition: 67%

## TTGAGTAGTGTAAGCT (sugars k3 d9 k3 e1, PS)
1 µM
  target mRNA inhibition: 40%

## TTATTGTAGGGATTGA (sugars k3 d10 k3, PS)
1 µM
  target mRNA inhibition: 63%

## AATCGCTGCTTAGTTC (sugars k3 d10 k3, PS)
1 µM
  target mRNA inhibition: 41%

## ACAAGATTAGTCTTGA (sugars k3 d10 k3, PS)
1 µM
  target mRNA inhibition: 45%

## AGAGGATAGTCCATGC (sugars kkdddddddddkekek, PS)
1 µM
  target mRNA inhibition: 70%

## ACTAGAACTCCCAACC (sugars k3 d10 k3, PS)
1 µM
  target mRNA inhibition: 20%

## GAGGATAGTCCATGCA (sugars k3 d10 k3, PS)
1 µM
  target mRNA inhibition: 59%
